The subject of experiment [1] is mouse cervical cancer cell line U14. Briefly: Mice U14 subcutaneous model, complex combined with chemotherapy. The note with it: U14 sc. Type of experiment: in vivo, C57 female mice. As for the experimental part: C57 female mice aged 6-8 weeks were raised. The mouse cervical cancer cell line U14 cultured to the logarithmic growth phase was prepared into a cell suspension and the cell density was 2×10^7/ml. Experimental animals were subcutaneously injected on the right back, with an injection system of 100 μl per mouse. When the tumor could be palpated (tumor volume is about 4 mm×4 mm×3 mm, i.e. the 5th day after inoculation), the mice were randomly divided into 6 groups, and administrated every 3 days for a total of 8 times according to the grouping and treatment scheme in Table 16. The tumor volume was measured every three days. After administration for 8 times, the mice were killed and subcutaneous tumors were dissected for examination.
Wherein, the administration volume is 100 μl per mouse, DDP is intraperitoneally administrated once a week. DDP is Cisplatin and LP is pMVA-1/DOTAP complex.

Experiment [2] concerns A549 cells. The experiment is described as follows: ROS level by H2DCF-DA fluorescence probe, flow cytometry. The experiment is classed as cell-based. As for the experimental part: (1) Sample loading: […] (3) […] CM-H2DCFDA fluorescent probe (made by Sigma) was added to the resuspended cells prepared in Step (2), incubated at 37° C. for 0.5 h, washed with PBS and resuspended; (4) The resuspended cells in Step (3) were tested with flow cytometry (Novocyte), and the test results were analyzed by Novoexpress software.
Background: In flow cytometry, cells or beads pass a laser one at a time.

Experiment [3] relates to A549 cells. The experiment is described as follows: Death ratio of A549 cells pretreated with NAC, flow cytometry. The experiment is classed as cell-based. The note with it: pretreated with NAC before pMVA-1/DOTAP complex.

`N.N.[Cl][Pt][Cl]` [Cisplatin]: the “lymphocyte infiltration in tumor tissue” value in experiment [1] is on record as “less common”. For the same molecule, the “tumor volume vs NS group, DOTAP group and pMVA-1 group” value in experiment [1] (Q3d x 8) is on record as “significantly lower”. Further, in experiment [1] (Q3d x 8, Cisplatin ip once a week), the tumor growth result is listed as “slow tumor growth”.

Take `CC(=O)N[C@@H](CS)C(=O)O` [NAC, N-Acetyl-L-cysteine]: in the experiment on A549 cells [2] (A549 pretreated with 5 mM NAC before pMVA-1/DOTAP complex), the “intracellular ROS level after NAC pretreatment” value is given as “decreased significantly”. Besides, the “death ratio of A549 cells” value in the experiment with A549 cells [3] is given as “significantly reduced”.

As to `OO` [H2O2], the “intracellular ROS level” value in the experiment on A549 cells [2] (A549, 3 h, H2O2 at 200 μM, *P<0.05) was “increased significantly”.

Values taken from patent US11738072B2, “Tumor vaccine and uses thereof” (WestVac Biopharma Co., Ltd., priority 2017, dated 2023).
